In publication PMC11375794, “Discovery of new Hsp90–Cdc37 protein–protein interaction inhibitors: in silico screening and optimization of anticancer activity” (RSC Advances, 2024):

System: MCF-7 breast cancer cell line
Assay: MTS cell viability (antiproliferative) assay in MCF-7
Type: cell-based
Conditions: MTS assay, 72 hours, mean ± SD; for IC50: Homo sapiens, MCF7, 72 h
Experimental: Hormone-positive breast cancer cell line MCF-7 (ATCC-HTB-22; ATCC) was grown in Dulbecco's Modified Eagle's Medium (DMEM), while Ewing sarcoma cell line SK-N-MC (a kind gift from Beat Schäfer) and THP-1 (ATCC-TIB-202; ATCC) cells were grown in Roswell Park Memorial Institute (RPMI) 1640. The medium was supplemented with 10% heat-inactivated fetal bovine serum (Gibco, Thermo Fisher Scientific, Waltham, MA, USA), 100 U per mL penicillin, 100 μg per mL streptomycin, and 2 mM L-glutamine (all from Sigma-Aldrich, St. Louis, MO, USA). All cell lines were incubated at 37 °C in a 5% CO2 atmosphere.
The antiproliferative activity of the compounds was evaluated against MCF-7 (ATCC-HTB-22; ATCC), SK-N-MC (a kind gift from Beat Schäfer) and THP-1 (ATCC-TIB-202; ATCC) cancer cell lines using the MTS assay (Promega, Madison, WI, USA). Cells were seeded in 96-well plates at a density of 2 × 10^4 cells per mL in 100 μL of growth medium for THP-1 and were treated with compounds and controls directly, while 3 × 10^3 cells per mL for MCF-7 and SK-N-MC were seeded in 100 μL of growth medium and allowed to adhere overnight following the treatment. In all cases the cells were treated with respective newly prepared compounds, positive controls (17-DMAG for MCF-7 and SK-N-MC; PU-H71 for THP-1) and a vehicle control (0.5% DMSO). The incubation time after treatment was 72 hours, then CellTiter96® Aqueous One Solution Reagent (Promega, Madison, WI, USA) was added to each well. Following a 3 hours incubation, absorbance was measured at 492 nm using BioTek's Synergy™ 4 Hybrid Microplate Reader (Winooski, VT, USA). The measurements were performed in two biological repetitions and each time the experiment was performed in a triplicate. The IC50 values, representing the concentration of inhibitor required for half-maximal inhibition, are the average of three independent experiments and were calculated using GraphPad Prism 9.5.0 software (San Diego, CA, USA).

| SMILES | IC50 | MCF-7 IC50 |
| --- | --- | --- |
| CN(CCc1ccccc1)C(=O)c1csc(Nc2cc(N3CCCC3)ncn2)n1 [Compound 6b, N-Methyl-N-phenethyl-2-((6-(pyrrolidin-1-yl)pyrimidin-4-yl)amino)thiazole-4-carboxamide] | 15.2 ± 0.7 µM | – |
| CN(CCOc1ccccc1)C(=O)c1cccc(Nc2cc(N3CCCC3)ncn2)c1 [Compound 11e, N-Methyl-N-(2-phenoxyethyl)-3-((6-(pyrrolidin-1-yl)pyrimidin-4-yl)amino)benzamide] | 34.1 ± 2.9 µM | – |
| CN(CCc1ccccc1)C(=O)c1ccc(Nc2cc(N3CCNCC3)ncn2)cc1 [Compound 13i, N-Methyl-N-phenethyl-4-((6-(piperazin-1-yl)pyrimidin-4-yl)amino)benzamide] | 38.3 ± 4.9 µM | – |
| NC1CCN(c2cc(Nc3ccc(C(=O)NCCOc4ccccc4)cc3)ncn2)CC1 [Compound 23, 4-((6-(4-Aminopiperidin-1-yl)pyrimidin-4-yl)amino)-N-(2-phenoxyethyl)benzamide] | > 50 µM | – |
| CN(CCOc1ccccc1)C(=O)c1cccc(Nc2cc(N3CCNCC3)ncn2)c1 [Compound 13e, N-Methyl-N-(2-phenoxyethyl)-3-((6-(piperazin-1-yl)pyrimidin-4-yl)amino)benzamide] | > 50 µM | – |
| O=C(NCCc1ccccc1)c1cccc(Nc2cc(N3CCNCC3)ncn2)c1 [Compound 13a, N-Phenethyl-3-((6-(piperazin-1-yl)pyrimidin-4-yl)amino)benzamide] | 31.9 ± 3.2 µM | – |
| N#CCN1CCN(c2cc(Nc3ccc(C(=O)NCCOc4ccccc4)cc3)ncn2)CC1 [Compound 24, 4-((6-(4-(Cyanomethyl)piperazin-1-yl)pyrimidin-4-yl)amino)-N-(2-phenoxyethyl)benzamide] | > 50 µM | loss of activity |
| O=C(NCCc1ccccc1)c1ccc(Nc2cc(N3CCCC3)ncn2)cc1 [Compound 11f, N-Phenethyl-4-((6-(pyrrolidin-1-yl)pyrimidin-4-yl)amino)benzamide] | > 50 µM | – |
| CN(CCc1ccccc1)C(=O)c1cccc(Nc2cc(N3CCNCC3)ncn2)c1 [Compound 13d, N-Methyl-N-phenethyl-3-((6-(piperazin-1-yl)pyrimidin-4-yl)amino)benzamide] | > 50 µM | – |
| CN(Cc1ccccc1)C(=O)c1ccc(Nc2cc(N3CCCC3)ncn2)cc1 [Compound 11h, N-Benzyl-N-methyl-4-((6-(pyrrolidin-1-yl)pyrimidin-4-yl)amino)benzamide] | 18.3 ± 7 µM | – |
| CN(Cc1ccccc1)C(=O)c1cccc(Nc2cc(N3CCCC3)ncn2)c1 [Compound 11c, N-Benzyl-N-methyl-3-((6-(pyrrolidin-1-yl)pyrimidin-4-yl)amino)benzamide] | 36.7 ± 6.1 µM | – |
| O=C(NCCc1ccccc1)c1cccc(Nc2cc(N3CCCC3)ncn2)c1 [Compound 11a, N-Phenethyl-3-((6-(pyrrolidin-1-yl)pyrimidin-4-yl)amino)benzamide] | 20.6 ± 3 µM | – |
| O=C(NCCOc1ccccc1)c1ccc(Nc2cc(N3CCCCC3)ncn2)cc1 [Compound 19, N-(2-Phenoxyethyl)-4-((6-(piperidin-1-yl)pyrimidin-4-yl)amino)benzamide] | > 50 µM | – |
| CN(CCc1ccccc1)C(=O)c1ccc(Nc2cc(N3CCCC3)ncn2)cc1 [Compound 11i, N-Methyl-N-phenethyl-4-((6-(pyrrolidin-1-yl)pyrimidin-4-yl)amino)benzamide] | 18 ± 1.5 µM | – |
| O=C(NCCOc1ccccc1)c1ccc(Nc2cc(N3CCOCC3)ncn2)cc1 [Compound 20, 4-((6-Morpholinopyrimidin-4-yl)amino)-N-(2-phenoxyethyl)benzamide] | > 50 µM | – |
| CN(CCOc1ccccc1)C(=O)c1ccc(Nc2cc(N3CCCC3)ncn2)cc1 [Compound 11j, N-Methyl-N-(2-phenoxyethyl)-4-((6-(pyrrolidin-1-yl)pyrimidin-4-yl)amino)benzamide] | > 50 µM | – |
| CN(Cc1ccccc1)C(=O)c1csc(Nc2cc(N3CCNCC3)ncn2)n1 [Compound 8a, N-Benzyl-N-methyl-2-((6-(piperazin-1-yl)pyrimidin-4-yl)amino)thiazole-4-carboxamide] | 17.1 ± 1.4 µM | – |
| COc1ccccc1OCCN(C)C(=O)c1csc(Nc2cc(C3CCCN(CC#N)C3)nc(C)n2)n1 (stereo not shown) [Compound 3] | 34.9 ± 2.7 µM | – |
